Values joined by “and” are separate entries in the source; they are usually repeats but may differ in a detail not shown here. Equal values may be shown once. Inconclusive results and toxic doses are left out.
Test system: nude mice, LOX melanoma ip, survival T/C
Test: NCI In Vivo Anticancer Drug Screen. Data for tumor model Human Amelanotic Melanoma (LOX) (intraperitoneal) in NU/NU BALB/C (nude) mice
Conditions: endpoint: median survival time, higher = longer survival
Procedure: The antitumor activity of compounds was measured in mice bearing transplantable tumors. Survival or tumor size were measured and the results are expressed as the measurement made in the treated group (T) divided by the measurement made in the vehicle treated control group (C). The tumor model used in this assay is Human Amelanotic Melanoma (LOX) (intraperitoneal) in NU/NU BALB/C (nude) mice

[1] = dose: 75.0 mg/kg/injection, schedule: Q04DX003 (ip), vehicle: saline with Tween-80
[2] = dose: 150.0 mg/kg/injection, schedule: Q04DX003 (ip), vehicle: saline with Tween-80
[3] = dose: 300.0 mg/kg/injection, schedule: Q04DX003 (ip), vehicle: saline with Tween-80
[4] = dose: 37.5 mg/kg/injection, schedule: Q04DX003 (ip), vehicle: saline with Tween-80
[5] = dose: 25.0 mg/kg/injection, schedule: Q04DX003 (ip), vehicle: saline with Tween-80
[6] = dose: 50.0 mg/kg/injection, schedule: Q04DX003 (ip), vehicle: saline with Tween-80
[7] = dose: 100.0 mg/kg/injection, schedule: Q04DX003 (ip), vehicle: saline with Tween-80
[8] = dose: 200.0 mg/kg/injection, schedule: Q04DX003 (ip), vehicle: saline with Tween-80

COC1=C(C)C(=O)C2=C(C1=O)C(CO)N1C(C#N)C3CC4C(C1C2N1CCOC41)N3C (stereo unspecified)
T/C (dose: 0.63 mg/kg/injection, schedule: Q04DX003 (ip), vehicle: acid diluted with saline): 109 % of control | T/C (dose: 0.63 mg/kg/injection, schedule: Q04DX003 (ip), vehicle: saline + alcohol): 122 % of control | T/C (dose: 1.25 mg/kg/injection, schedule: Q04DX003 (ip), vehicle: acid diluted with saline): 123 % of control | T/C (dose: 2.5 mg/kg/injection, schedule: Q04DX003 (ip), vehicle: acid diluted with saline): 115 % of control | T/C (dose: 2.5 mg/kg/injection, schedule: Q04DX003 (ip), vehicle: saline + alcohol): 168 % of control

CS(=O)(=O)CS(=O)(=O)OCCF
T/C (dose: 3.13 mg/kg/injection, schedule: Q04DX003 (ip), vehicle: saline): 152 % of control | T/C (dose: 6.25 mg/kg/injection, schedule: Q04DX003 (ip), vehicle: saline): 295 % of control | T/C (dose: 12.5 mg/kg/injection, schedule: Q04DX003 (ip), vehicle: saline): 295 % of control | T/C (dose: 25.0 mg/kg/injection, schedule: Q04DX003 (ip), vehicle: saline): 295 % of control | T/C (dose: 50.0 mg/kg/injection, schedule: Q04DX003 (ip), vehicle: saline): 295 % of control

Cc1cc(Br)c2nsnc2c1[N+](=O)[O-]
T/C [1]: 112 % of control | T/C [2]: 103 % of control | T/C [3]: 112 % of control | T/C (dose: 600.0 mg/kg/injection, schedule: Q04DX003 (ip), vehicle: saline with Tween-80): 124 % of control | T/C (dose: 1200.0 mg/kg/injection, schedule: Q04DX003 (ip), vehicle: saline with Tween-80): 114 % of control

CC(=O)O[C@H]1C(=O)[C@@]2(C)[C@H]([C@H](OC(=O)c3ccccc3)[C@]3(O)C[C@H](OC(=O)[C@H](O)[C@@H](NC(=O)c4ccccc4)c4ccccc4)C(C)=C1C3(C)C)[C@]1(OC(C)=O)CO[C@@H]1C[C@@H]2O
T/C (dose: 1.88 mg/kg/injection, schedule: Q01DX009 (ip), vehicle: Klucel (hydroxypropylcellulose) (HPC)): 172 % of control | T/C (dose: 3.75 mg/kg/injection, schedule: Q01DX009 (ip), vehicle: Klucel (hydroxypropylcellulose) (HPC)): 158 % of control and 173 % of control | T/C (dose: 7.5 mg/kg/injection, schedule: Q01DX009 (ip), vehicle: Klucel (hydroxypropylcellulose) (HPC)): 170 % of control | T/C (dose: 15.0 mg/kg/injection, schedule: Q01DX009 (ip), vehicle: Klucel (hydroxypropylcellulose) (HPC)): 105 % of control and 93 % of control

Cc1ccc(NN=O)nc1
T/C (dose: 2.5 mg/kg/injection, schedule: Q04DX003 (ip), vehicle: water): 105 % of control | T/C (dose: 5.0 mg/kg/injection, schedule: Q04DX003 (ip), vehicle: water): 114 % of control | T/C (dose: 10.0 mg/kg/injection, schedule: Q04DX003 (ip), vehicle: water): 115 % of control

O=C1CNC(=O)N1CN1CCOCC1
T/C (dose: 150.0 mg/kg/injection, schedule: Q04DX003 (ip), vehicle: Klucel (hydroxypropylcellulose) (HPC)): 177 % of control | T/C (dose: 600.0 mg/kg/injection, schedule: Q04DX003 (ip), vehicle: Klucel (hydroxypropylcellulose) (HPC)): 152 % of control

COc1cccc(Sc2ccc([N+](=O)[O-])c3no[n+]([O-])c23)c1
T/C [4]: 101 % of control | T/C [1]: 120 % of control | T/C [2]: 89 % of control | T/C [3]: 101 % of control

CC(=O)C[n+]1ccc(C)cc1Sc1ccccc1C
T/C (dose: 12.5 mg/kg/injection, schedule: Q04DX003 (ip), vehicle: saline with Tween-80): 93 % of control | T/C [5]: 99 % of control | T/C [6]: 95 % of control | T/C [7]: 88 % of control

CC(O)C1(O)C(O)CC(OC2c3cc4c(c(O)c3[C@@H]3C[C@@]2(C)OC32C=c3cc[nH]c3=N2)C(=O)c2cccc(O)c2C4=O)OC1C (stereo partly specified)
T/C (dose: 3.75 mg/kg/injection, schedule: Q04DX003 (ip), vehicle: saline with Tween-80): 108 % of control | T/C (dose: 7.5 mg/kg/injection, schedule: Q04DX003 (ip), vehicle: saline with Tween-80): 112 % of control | T/C (dose: 15.0 mg/kg/injection, schedule: Q04DX003 (ip), vehicle: saline with Tween-80): 117 % of control | T/C (dose: 30.0 mg/kg/injection, schedule: Q04DX003 (ip), vehicle: saline with Tween-80): 117 % of control | T/C (dose: 60.0 mg/kg/injection, schedule: Q04DX003 (ip), vehicle: saline with Tween-80): 91 % of control

NC(Cc1ccc(N(CCCl)Cc2ccccc2)cc1)C(=O)O (stereo unspecified)
T/C [5]: 107 % of control | T/C [6]: 124 % of control | T/C [8]: 158 % of control and 163 % of control

O=C(O)c1cc(C(=O)O)c(C(=O)O)cc1C(=O)O.[NH2-].[NH2-].[NH2-].[NH2-].[Pt+2].[Pt+2]
T/C (dose: 6.25 mg/kg/injection, schedule: Q04DX003 (ip), vehicle: water): 89 % of control | T/C (dose: 12.5 mg/kg/injection, schedule: Q04DX003 (ip), vehicle: water): 104 % of control | T/C (dose: 25.0 mg/kg/injection, schedule: Q04DX003 (ip), vehicle: water): 115 % of control | T/C (dose: 50.0 mg/kg/injection, schedule: Q04DX003 (ip), vehicle: water): 115 % of control

O=S(=O)(c1cccc(N=C=S)c1)c1cccc(N=C=S)c1
T/C (dose: 15.0 mg/kg/injection, schedule: Q04DX003 (ip), vehicle: Klucel (hydroxypropylcellulose) (HPC)): 91 % of control | T/C (dose: 30.0 mg/kg/injection, schedule: Q04DX003 (ip), vehicle: Klucel (hydroxypropylcellulose) (HPC)): 95 % of control | T/C (dose: 60.0 mg/kg/injection, schedule: Q04DX003 (ip), vehicle: Klucel (hydroxypropylcellulose) (HPC)): 107 % of control | T/C (dose: 120.0 mg/kg/injection, schedule: Q04DX003 (ip), vehicle: Klucel (hydroxypropylcellulose) (HPC)): 109 % of control

OCC(O)C(O)C(O)C(O)CO (stereo unspecified)
T/C (dose: 75.0 mg/kg/injection, schedule: Q04DX003 (ip), vehicle: saline): 97 % of control | T/C (dose: 150.0 mg/kg/injection, schedule: Q04DX003 (ip), vehicle: saline): 102 % of control | T/C (dose: 300.0 mg/kg/injection, schedule: Q04DX003 (ip), vehicle: saline): 97 % of control | T/C (dose: 600.0 mg/kg/injection, schedule: Q04DX003 (ip), vehicle: saline): 106 % of control | T/C (dose: 1200.0 mg/kg/injection, schedule: Q04DX003 (ip), vehicle: saline): 104 % of control

NCCCSc1ccccc1
T/C (dose: 9.38 mg/kg/injection, schedule: Q01DX009 (ip), vehicle: saline): 94 % of control | T/C (dose: 18.75 mg/kg/injection, schedule: Q01DX009 (ip), vehicle: saline): 99 % of control | T/C (dose: 37.5 mg/kg/injection, schedule: Q01DX009 (ip), vehicle: saline): 99 % of control | T/C (dose: 75.0 mg/kg/injection, schedule: Q01DX009 (ip), vehicle: saline): 94 % of control | T/C (dose: 150.0 mg/kg/injection, schedule: Q01DX009 (ip), vehicle: saline): 89 % of control

COC(=O)NC1C(C)OC(OC2C/C=C(/C)C3C=CC4C(OC5CC(OC6CC(OC7CC(O)C(O)C(C)O7)C(OC7CC(O)C(OC)C(C)O7)C(C)O6)C(O)C(C)O5)C(C)CC(C)C4C3(C)/C(O)=C3\C(=O)OC4(CC(C)C(CO)=CC4/C=C\2C)C3=O)CC1(C)[N+](=O)[O-] (stereo unspecified)
T/C (dose: 75.0 mg/kg/injection, schedule: Q04DX003 (ip), vehicle: water): 93 % of control | T/C (dose: 150.0 mg/kg/injection, schedule: Q04DX003 (ip), vehicle: water): 120 % of control

COc1ccc(C(C)c2cc3c(cc2OC)OCO3)cc1 (stereo unspecified)
T/C [5]: 114 % of control | T/C [7]: 158 % of control | T/C [8]: 198 % of control

COC1CC2C=C(C)/C=C/C=C/C(=O)NC(c3ccccc3)C/C=C/CCC(O)CC(=O)C2=C1O (stereo unspecified)
T/C (dose: 18.75 mg/kg/injection, schedule: Q04DX003 (ip), vehicle: Klucel (hydroxypropylcellulose) (HPC)): 112 % of control | T/C (dose: 37.5 mg/kg/injection, schedule: Q04DX003 (ip), vehicle: Klucel (hydroxypropylcellulose) (HPC)): 187 % of control

CCN(CC)CC(C)(C)C(=O)/C=C/c1ccc(/C=C/C(=O)C(C)(C)CN(CC)CC)cc1
T/C (dose: 7.5 mg/kg/injection, schedule: Q04DX003 (ip), vehicle: saline): 103 % of control | T/C (dose: 15.0 mg/kg/injection, schedule: Q04DX003 (ip), vehicle: saline): 116 % of control | T/C (dose: 30.0 mg/kg/injection, schedule: Q04DX003 (ip), vehicle: saline): 109 % of control

CN(C)C(=O)Nc1ccc(Cl)cc1
T/C (dose: 75.0 mg/kg/injection, schedule: Q04DX003 (ip), vehicle: suspension in saline): 118 % of control | T/C (dose: 150.0 mg/kg/injection, schedule: Q04DX003 (ip), vehicle: suspension in saline): 102 % of control | T/C (dose: 300.0 mg/kg/injection, schedule: Q04DX003 (ip), vehicle: suspension in saline): 102 % of control | T/C (dose: 600.0 mg/kg/injection, schedule: Q04DX003 (ip), vehicle: suspension in saline): 102 % of control

CS(=O)(=O)Nc1ccc(C(=O)CCN2CCCCCC2)cc1
T/C [4]: 98 % of control | T/C [1]: 123 % of control | T/C [2]: 93 % of control | T/C [3]: 110 % of control
